Assay results from patent US20090176817A1, “Method of Treatment of Diarrhea-Predominant Irritable Bowel Syndrome in a Subject” (priority 2005, published 2009).
Marks after values point to notes of the source that are not given here.

Columns and labels:
clinical [1] = settings: human, in vivo
Description: The single- and multiple-dose pharmacokinetics of cilansetron at oral doses of 4 mg and 8 mg were evaluated in a randomized, double-blind, placebo controlled, parallel group study in 32 male subjects (14 subjects received 4 mg cilansetron, 14 received 8 mg cilansetron, and 4 received placebo). Subjects received a single dose of cilansetron at their assigned dose on the first day of the study (Day 1), followed by a 7-day washout, after which they received cilansetron TID at their assigned dose for 6 days and a single dose on the morning of the seventh day (Day 14). Morning doses on all days were administered under fasted conditions. […] Renal excretion of cilansetron was negligible following single and multiple dosing at both doses, with less than 1% of the dose excreted unchanged in urine.

clinical [2] = format: in vivo, human; settings: both sexes, human, in vivo
Description: (§1) Various covariates were screened during development of the population pharmacokinetic model, including age, height, weight, body surface area, body mass index, race, gender, smoking status, serum creatinine levels, serum creatinine clearance, total bilirubin levels, cilansetron dose, and concomitant medication usage. Some efficacy and safety parameters were also evaluated in this population analysis using correlation analyses. Efficacy parameters evaluated included overall relief of IBS symptoms (Responder or Non-Responder), intensity of abdominal pain, number of stools and stool consistency, symptoms of abdominal and rectal discomfort (straining, urgency, feeling of incomplete defecation, passage of mucus, bloating, and feeling of abdominal distension), and upper GI symptoms at Visit 5 (vomiting, heartburn, early satiety, postprandial fullness, sensation of prolonged digestion, and nausea). Safety parameters evaluated included the top ten most frequently observed adverse events (constipation, flatulence, nausea, abdominal pain, headache, dyspepsia, infection, gastrointestinal disorders, anorexia, and diarrhea).
(§2) A statistically significant negative correlation was found between exposure (AUC and Cmax at steady state) and some efficacy parameters including change in stool consistency (adjusted for baseline) and the experience of straining. Patients with higher exposure to cilansetron and/or its 4-hydroxy metabolites were more likely to have lower stool consistency scores (a tendency for harder stools) than patients with lower exposure. […] In addition, patients with higher exposure to cilansetron were more likely to experience straining.

[3] = test system: non-constipated IBS patients; experiment: clinical; format: in vivo, human; settings: linear regression
Description: as §1, §2

[4] = test system: healthy, elderly subjects; experiment: Study K.241.5014: colonic transit time, elderly, 8 mg TID; format: in vivo, human
Description: The effect of cilansetron on gastric emptying time and colonic transit time has been studied in 1 clinical study in healthy young subjects and 2 studies in elderly subjects. For measurement of gastric emptying time, breath samples for the determination of the ^12C/^13C ratio were taken on the last day of each treatment period immediately after ingestion of a ^13C labeled meal. The patients' breath was collected in separate 15-minute intervals, for four hours in total. ^13CO2 measurements were performed with an isotope ratio mass spectrometer. The half-life (TK) and lag-time (Tlag), which describe the duration of gastric emptying, were used as the primary parameters to evaluate gastric emptying time. In all 3 studies, colonic transit time was measured by administration of radio-opaque markers for the last six days of each treatment period, followed by a single abdominal X-ray image at 24 hours after ingestion of the last set of markers. The numbers of markers within the colon were used to calculate segmental (right colon, left colon, and rectosigmoid) and total colonic transit time.
Studies K.241.5013 and K.241.5014 were randomized, double-blind, placebo-controlled, 2-way crossover studies in 8 healthy male and female elderly subjects, each (ITT population, aged 64-83 years in K.241.5013 and 66-84 years in K.241.5014). Elderly subjects were selected for these studies because they commonly suffer from constipation and it was of interest whether cilansetron would prolong gastrointestinal transit times in this population. Subjects received cilansetron 4 mg or placebo in Study K.241.5013 and cilansetron 8 mg or placebo in Study K.241.5014. Treatments were administered orally TID for 14 days during each period, with a 14-day washout between periods. The primary efficacy parameter was the total mean colonic transit time during each treatment and the secondary parameters were the segmental colonic transit times and the gastric emptying measurements. One-sided t-tests were used to compare efficacy parameters between the cilansetron and placebo treatments.

[5] = in vivo
Description: Time to reach steady state following dosing with cilansetron 2 mg TID has been evaluated in a study in 9 healthy male and female subjects.

clinical [6] = settings: both, human, in vivo, po, 8 mg
[7] = 8 mg TID oral 14 days, healthy elderly, Study K.241.5014, mean (SD)

Cc1nccn1C[C@H]1CCc2c(c3cccc4c3n2CCC4)C1=O [Cilansetron, (R)-(−)-4,5,6,8,9,10-hexahydro-10-[(2-methyl-1H-imidazol-1-yl)methyl]-11H-pyrido-[3,2,1-jk]-carbazol-11-one]
CL/F (clinical [1]; 4 mg): 3226 (51) mL/min | CL/F (clinical [1]; 8 mg): 3559 (62) mL/min | Dose excreted unchanged in urine (clinical [1]; male): less than 1% | Intersubject % CV for AUC and Cmax (clinical [1]; male): 36-82% | Intrasubject % CV on AUC (clinical [1]; male): 33-55% | CLr (clinical [1]; male, 4 mg): 7.47 (143) mL/min | DN-AUC (clinical [1]; male, 4 mg): 6.08 (36) ng · h/mL | DN-Cmax (clinical [1]; male, 4 mg): 2.21 (37) ng/mL | Vd/F (clinical [1]; male, 4 mg): 406 L | AUC (clinical [1]; male, 4 mg): 24.3 ng·h/mL | Cmax (clinical [1]; male, 4 mg): 8.83 ng/mL | Tmax (clinical [1]; male, 4 mg): 1.38 h | half-life (clinical [1]; male, 4 mg, T½): 1.55 h | DN-AUC (clinical [1]; male, 8 mg): 6.55 (69) ng · h/mL | DN-Cmax (clinical [1]; male, 8 mg): 2.89 (61) ng/mL | Vd/F (clinical [1]; male, 8 mg): 483 L | AUC (clinical [1]; male, 8 mg): 52.4 ng·h/mL | CL renal (clinical [1]; male, 8 mg, CLr): 4.68 mL/min | Cmax (clinical [1]; male, 8 mg): 23.1 ng/mL | Tmax (clinical [1]; male, 8 mg): 1 h | half-life (clinical [1]; male, 8 mg, T½): 1.92 h | half-life (clinical [1]; male, Mean half-life): 1.6 to 1.9 h | AUC (clinical [2]): 360 ng·h/mL | Cmax (clinical [2]): 65 ng/mL | Decrease in stool consistency score per 600 ng*h/mL AUC or 100 ng/mL Cmax [3]: 0.5 point | Total colonic transit time vs placebo ([4]; 8 mg TID): statistically significant increase | Transit Times, Colonic Segments Left [4, 7]: 31.5 (30.5) hours | Transit Times, Colonic Segments Rectosigmoid [4, 7]: 16.7 (25.2) hours | Transit Times, Colonic Segments Right [4, 7]: 31.4 (21.0) hours | Transit Times, Colon Total ([4]; 8 mg TID oral 14 days, healthy elderly, Study K.241.5014, mean (SD), significant vs placebo (p < 0.05)): 79.8 (49.8)* hours | Steady state achieved by [5]: third day | In vivo chiral inversion to KC9945: no in vivo chiral inversion | AUC (clinical [6]; AUC(0-τ), Geom. LS Mean): 334 ng·h/mL | Cmax (clinical [6]): 94.4 ng/mL | Cmax (clinical [6]; Geom. LS Mean): 83.9 ng/mL | Tmax (clinical [6]; Tmax): 0.75 h | half-life (clinical [6]; T½): 8.16 h | Vd/F (clinical [6]; Vz/F): 388 L
